Source: ChEMBL document CHEMBL4325823 (Medchemcomm, 2018)

Experiments:
[1] = system: Enterobacter sp.; test: Inhibition of ESBL in Enterobacter sp. clinical isolate assessed as potentiation of imipenem-induced antibacterial activity by measuring imipenem MIC at 4 ug/ml
[2] = system: Pseudomonas aeruginosa; test: Inhibition of beta lactamase KPC in imipenem-resistant Pseudomonas aeruginosa clinical isolate assessed as potentiation of imipenem-induced antibacterial activity by measuring imipenem MIC50 at 4 ug/ml (Rvb >16 ug/ml)
[3] = system: Escherichia coli; test: Inhibition of ESBL in Escherichia coli clinical isolate assessed as potentiation of imipenem-induced antibacterial activity by measuring imipenem MIC at 4 ug/ml
[4] = system: Pseudomonas aeruginosa; test: Inhibition of ESBL in Pseudomonas aeruginosa clinical isolate assessed as potentiation of imipenem-induced antibacterial activity by measuring imipenem MIC at 4 ug/ml
[5] = system: Pseudomonas aeruginosa; test: Inhibition of beta lactamase KPC in imipenem-resistant Pseudomonas aeruginosa clinical isolate assessed as potentiation of imipenem-induced antibacterial activity by measuring imipenem MIC90 at 4 ug/ml (reference value: 8 ug/ml)
[6] = system: Klebsiella pneumoniae; test: Inhibition of beta lactamase KPC in Klebsiella pneumoniae clinical isolate assessed as potentiation of imipenem-induced antibacterial activity by measuring imipenem MIC50 at 4 ug/ml (Rvb >16 ug/ml)
[7] = system: Klebsiella pneumoniae; test: Inhibition of beta lactamase KPC in Klebsiella pneumoniae clinical isolate assessed as potentiation of imipenem-induced antibacterial activity by measuring imipenem MIC90 at 4 ug/ml (reference value: 16 ug/ml)
[8] = system: Klebsiella pneumoniae; test: Inhibition of ESBL in Klebsiella pneumoniae clinical isolate assessed as potentiation of imipenem-induced antibacterial activity by measuring imipenem MIC at 4 ug/ml
[9] = system: Enterobacteriaceae; test: Inhibition of ESBL in Enterobacteriaceae assessed as potentiation of cefepime-induced antibacterial activity by measuring cefepime MIC by broth microdilution method
[10] = system: Acinetobacter baumannii; test: Inhibition of beta lactamase in Acinetobacter baumannii assessed as potentiation of sulbactam-induced antibacterial activity by measuring sulbactam MIC90 at 4 ug/ml (reference value: 64 ug/ml)
[11] = system: Acinetobacter baumannii; test: Inhibition of beta lactamase in Acinetobacter baumannii assessed as potentiation of imipenem-induced antibacterial activity by measuring fold reduction in imipenem MIC at 4 ug/ml
[12] = target: Beta-lactamase (Acinetobacter baumannii, UniProt Q8RLA6); test: Inhibition of Acinetobacter baumannii OXA-24
Sequence of Beta-lactamase (Q8RLA6 whole entry): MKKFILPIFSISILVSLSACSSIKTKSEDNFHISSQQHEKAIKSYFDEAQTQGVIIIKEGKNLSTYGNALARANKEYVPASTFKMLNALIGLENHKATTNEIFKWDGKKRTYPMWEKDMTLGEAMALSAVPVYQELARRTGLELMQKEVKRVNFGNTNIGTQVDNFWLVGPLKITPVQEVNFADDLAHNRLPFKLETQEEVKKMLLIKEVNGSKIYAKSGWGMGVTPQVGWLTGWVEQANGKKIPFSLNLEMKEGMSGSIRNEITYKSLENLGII

[13] = Inhibition of bacterial NDM1; parameters: species or system Bacteria
[14] = Inhibition of bacterial Class A beta-lactamase; parameters: species or system Bacteria
[15] = Inhibition of bacterial beta lactamase class C; parameters: species or system Bacteria
[16] = system: Enterobacteriaceae; test: Inhibition of beta lactamase CMY-2 in CTX-M-15/CTX-M-14/KPC/NDM1 deficient Enterobacteriaceae assessed as potentiation of ceftazidime-induced antibacterial activity by measuring ceftazidime MIC by broth microdilution method
[17] = system: Pseudomonas aeruginosa; test: Inhibition of beta lactamase in Pseudomonas aeruginosa assessed as potentiation of ceftazidime-induced antibacterial activity by measuring ceftazidime MIC at 4 ug/ml (reference value: 64 ug/ml)
[18] = system: Enterobacteriaceae; test: Inhibition of beta lactamase CTX-M-15 in KPC/NDM1 deficient Enterobacteriaceae assessed as potentiation of ceftazidime-induced antibacterial activity by measuring ceftazidime MIC by broth microdilution method
[19] = system: Pseudomonas aeruginosa; test: Inhibition of beta lactamase in Pseudomonas aeruginosa assessed as potentiation of imipenem-induced antibacterial activity by measuring […] MIC at 4 ug/ml (reference value: 16 ug/ml)
[20] = system: Enterobacteriaceae; test: Inhibition of beta lactamase KPC in Enterobacteriaceae assessed as potentiation of ceftazidime-induced antibacterial activity by measuring ceftazidime MIC by broth microdilution method
[21] = system: Enterobacteriaceae; test: Inhibition of beta lactamase CTX-M-14 in CTX-M-15 deficient Enterobacteriaceae assessed as potentiation of ceftazidime-induced antibacterial activity by measuring ceftazidime MIC by broth microdilution method
[22] = system: Enterobacteriaceae; test: Inhibition of beta lactamase SHV in Enterobacteriaceae assessed as potentiation of ceftazidime-induced antibacterial activity by measuring ceftazidime MIC by broth microdilution method
[23] = system: Klebsiella pneumoniae ATCC BAA-1705; test: Inhibition of beta lactamase KPC in Klebsiella pneumoniae BAA-1705 assessed as potentiation of meropenem-induced antibacterial activity by measuring fold reduction in meropenem MIC50 by checkerboard microdilution assay relative to meropenem alone
[24] = system: Klebsiella pneumoniae ATCC BAA-1705; test: Inhibition of beta lactamase KPC in Klebsiella pneumoniae BAA-1705 assessed as potentiation of meropenem-induced antibacterial activity by measuring fold reduction in meropenem MIC90 by checkerboard microdilution assay relative to meropenem alone
[25] = system: Enterobacteriaceae; test: Inhibition of beta lactamase KPC in Enterobacteriaceae assessed as potentiation of meropenem-induced antibacterial activity by measuring meropenem MIC by broth microdilution method
[26] = system: Klebsiella pneumoniae; test: Inhibition of beta lactamase KPC in Klebsiella pneumoniae assessed as potentiation of meropenem-induced antibacterial activity by measuring fold reduction in meropenem MIC
[27] = system: Klebsiella pneumoniae; test: Inhibition of beta lactamase class C in Klebsiella pneumoniae assessed as potentiation of meropenem-induced antibacterial activity by measuring fold reduction in meropenem MIC
[28] = system: Klebsiella pneumoniae; test: Inhibition of beta lactamase OXA in Klebsiella pneumoniae assessed as potentiation of meropenem-induced antibacterial activity by measuring fold reduction in meropenem MIC

Q: What does the source list for O=C(NC1CCNCC1)[C@@H]1CC[C@@H]2CN1C(=O)N2OS(=O)(=O)O?
A: MIC50 [1]: 0.5 µg/mL; MIC90 [1]: 0.25 µg/mL; MIC50 [2]: 2 µg/mL; MIC50 [3]: 0.25 µg/mL; MIC90 [3]: 0.25 µg/mL; MIC50 [4]: 2 µg/mL; MIC90 [4]: 0.5 µg/mL; MIC90 [5]: 1 µg/mL; MIC50 [6]: 1 µg/mL; MIC90 [7]: 0.25 µg/mL; MIC50 [8]: 0.25 µg/mL; MIC90 [8]: 0.25 µg/mL

Q: For Cn1cc[n+](C[C@@]2(C)[C@H](C(=O)[O-])N3C(=O)C[C@H]3S2(=O)=O)n1, which MIC50 [9] is on record?
A: 0.125 µg/mL

Q: And the MIC90 [9]?
A: 0.5 µg/mL

Q: For CC1=C[C@@H]2CN(C(=O)N2OS(=O)(=O)O)[C@@H]1C(N)=O [DURLOBACTAM], which MIC90 [10] is on record?
A: 4 µg/mL

Q: And the fold change (FC) [11]?
A: 8

Q: And the IC50 [12]?
A: 685 nM

Q: Which IC50 [13] does the source give for O=C(Cc1cn2ccsc2n1)NNC(=S)Nc1ccc(OCc2ccccc2)cc1 here?
A: 35 nM

Q: Which results are given for NCCONC(=O)[C@@H]1CC2(CC2)[C@@H]2CN1C(=O)N2OS(=O)(=O)O?
A: IC50 [14]: < 19 nM; IC50 [15]: < 19 nM

Q: For NC(=O)[C@@H]1CC[C@@H]2CN1C(=O)N2OS(=O)(=O)O, which MIC90 [16] is on record?
A: < 2 µg/mL

Q: What about the MIC90 [17] of the same compound?
A: 8 µg/mL

Q: And the MIC90 [18]?
A: < 2 µg/mL

Q: And the MIC90 [19]?
A: 2 µg/mL

Q: What about the MIC90 [20] of the same compound?
A: < 2 µg/mL

Q: And the MIC90 [21]?
A: < 2 µg/mL

Q: What about the MIC90 [22] of the same compound?
A: < 2 µg/mL

Q: With O=C(O)C[C@@H]1CC[C@H](NC(=O)Cc2cccs2)B(O)O1 as the compound, how does the fold change (FC) [23] read?
A: 64

Q: What about the fold change (FC) [24] of the same compound?
A: 64

Q: And the MIC50 [25]?
A: 0.12 µg/mL

Q: What about the MIC90 [25] of the same compound?
A: 0.5 µg/mL

Q: Which fold change (FC) [26] does the source give for NC[C@H]1CC([C@@H]2CC[C@@H]3CN2C(=O)N3OS(=O)(=O)O)=NO1 here?
A: < 1024

Q: And the fold change (FC) [27]?
A: < 1024

Q: And the fold change (FC) [28]?
A: < 1024
